Assay results: ChEMBL document CHEMBL5346920, “Development of the "hidden" multi-target-directed ligands by AChE/BuChE for the treatment of Alzheimer's disease” (Eur J Med Chem, 2023)
The source made the active and inactive calls. No cut-off for these calls is given here.

Experiments:
[1] = test system: BV-2; assay: Cytotoxicity against mouse BV-2 cells assessed as reduction in cell viability at 10 uM by CCK8 assay; assay type: toxicity, cell-based; conditions: bv-2, 10 µM
[2] = test system: BV-2; assay: Anti-inflammatory activity against LPS-stimulated mouse BV-2 cells assessed as inhibition of LPS-induced NO production incubated for 24 hrs in presence of LPS; assay type: functional, cell-based; conditions: dose 1-9 µM
[3] = species: Homo sapiens; assay: Selectivity index, ratio of IC50 for inhibition of human recombinant MAO-A expressed in baculovirus-infected BTI cells to IC50 for inhibition of human recombinant MAO-B expressed in baculovirus-infected BTI cells
[4] = test system: PC-12; assay: Cytotoxicity against rat PC-12 cells assessed as cell viability at 40 uM by CCK-8 assay; assay type: toxicity, cell-based; conditions: pc-12, 40 µM
[5] = test system: BV-2; assay: Anti-inflammatory activity against LPS-stimulated mouse BV-2 cells assessed as inhibition of LPS-induced IL-1 beta production incubated for 24 hrs in presence of LPS; assay type: functional, cell-based; conditions: dose 1-9 µM
[6] = target: Cholinesterase (Equus caballus, UniProt P81908); assay: Inhibition of equine serum BuChE using butyrylthiocholine chloride as substrate by Ellman's method; assay type: cell-free
Chain of Cholinesterase (P81908 whole entry): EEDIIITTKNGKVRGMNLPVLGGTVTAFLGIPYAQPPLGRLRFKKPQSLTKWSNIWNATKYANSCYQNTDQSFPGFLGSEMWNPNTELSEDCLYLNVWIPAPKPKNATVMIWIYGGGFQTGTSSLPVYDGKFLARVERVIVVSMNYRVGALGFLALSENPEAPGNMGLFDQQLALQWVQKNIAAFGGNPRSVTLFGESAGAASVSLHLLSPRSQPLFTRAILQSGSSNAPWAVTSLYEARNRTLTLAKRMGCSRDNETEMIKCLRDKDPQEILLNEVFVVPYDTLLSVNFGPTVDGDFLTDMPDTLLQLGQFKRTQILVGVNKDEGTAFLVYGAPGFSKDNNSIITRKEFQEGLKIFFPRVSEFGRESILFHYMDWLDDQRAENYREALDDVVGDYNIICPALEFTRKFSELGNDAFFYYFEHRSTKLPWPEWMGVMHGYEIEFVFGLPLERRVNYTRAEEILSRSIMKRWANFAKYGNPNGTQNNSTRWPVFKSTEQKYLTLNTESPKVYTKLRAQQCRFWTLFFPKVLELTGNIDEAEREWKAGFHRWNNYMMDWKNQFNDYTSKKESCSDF

[7] = target: T1, Amine oxidase [flavin-containing] A (Homo sapiens, UniProt P21397); assay: Inhibition of human recombinant MAO-A expressed in baculovirus-infected BTI cells using kynuramine as substrate incubated for 30 mins by fluorescence based analysis
T1 sequence (P21397 whole entry): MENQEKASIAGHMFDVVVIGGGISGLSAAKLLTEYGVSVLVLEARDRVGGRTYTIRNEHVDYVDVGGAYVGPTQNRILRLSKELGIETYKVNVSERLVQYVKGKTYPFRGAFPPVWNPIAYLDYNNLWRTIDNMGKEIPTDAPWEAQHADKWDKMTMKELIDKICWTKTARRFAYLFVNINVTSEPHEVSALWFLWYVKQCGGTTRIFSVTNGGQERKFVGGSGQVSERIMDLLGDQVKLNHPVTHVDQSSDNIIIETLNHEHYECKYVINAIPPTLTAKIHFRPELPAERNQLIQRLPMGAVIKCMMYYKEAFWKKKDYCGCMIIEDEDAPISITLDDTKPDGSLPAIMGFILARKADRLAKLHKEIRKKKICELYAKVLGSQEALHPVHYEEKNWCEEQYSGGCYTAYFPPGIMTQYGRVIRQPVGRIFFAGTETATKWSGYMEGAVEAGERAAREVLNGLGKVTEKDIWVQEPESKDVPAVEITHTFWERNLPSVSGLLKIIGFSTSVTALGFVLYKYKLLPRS

[8] = Selectivity index, ratio of IC50 for inhibition of electric eel AChE to IC50 for inhibition of equine serum BuChE
[9] = target: T2, Amine oxidase [flavin-containing] B (Homo sapiens, UniProt P27338); assay: Inhibition of human recombinant MAO-B expressed in baculovirus-infected BTI cells using kynuramine as substrate incubated for 30 mins by fluorescence based analysis
T2 sequence (P27338 whole entry): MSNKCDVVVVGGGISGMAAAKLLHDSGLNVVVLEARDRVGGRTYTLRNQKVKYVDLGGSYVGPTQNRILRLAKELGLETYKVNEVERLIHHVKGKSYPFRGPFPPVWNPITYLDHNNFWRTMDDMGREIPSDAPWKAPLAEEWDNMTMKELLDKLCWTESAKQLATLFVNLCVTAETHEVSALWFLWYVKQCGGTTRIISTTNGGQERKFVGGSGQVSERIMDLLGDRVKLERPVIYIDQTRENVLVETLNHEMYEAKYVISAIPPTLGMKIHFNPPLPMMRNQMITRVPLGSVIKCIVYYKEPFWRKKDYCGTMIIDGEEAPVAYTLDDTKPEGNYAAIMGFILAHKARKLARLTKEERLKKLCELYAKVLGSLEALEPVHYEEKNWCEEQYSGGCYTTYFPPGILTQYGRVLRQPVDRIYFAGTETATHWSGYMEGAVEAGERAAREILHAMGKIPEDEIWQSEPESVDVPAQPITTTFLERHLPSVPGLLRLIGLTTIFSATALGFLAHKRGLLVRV

[10] = target: Acetylcholinesterase (Electrophorus electricus, UniProt O42275); assay: Inhibition of electric eel AChE using acetylthiocholine chloride as substrate by Ellman's method
Chain of Acetylcholinesterase (O42275 whole entry): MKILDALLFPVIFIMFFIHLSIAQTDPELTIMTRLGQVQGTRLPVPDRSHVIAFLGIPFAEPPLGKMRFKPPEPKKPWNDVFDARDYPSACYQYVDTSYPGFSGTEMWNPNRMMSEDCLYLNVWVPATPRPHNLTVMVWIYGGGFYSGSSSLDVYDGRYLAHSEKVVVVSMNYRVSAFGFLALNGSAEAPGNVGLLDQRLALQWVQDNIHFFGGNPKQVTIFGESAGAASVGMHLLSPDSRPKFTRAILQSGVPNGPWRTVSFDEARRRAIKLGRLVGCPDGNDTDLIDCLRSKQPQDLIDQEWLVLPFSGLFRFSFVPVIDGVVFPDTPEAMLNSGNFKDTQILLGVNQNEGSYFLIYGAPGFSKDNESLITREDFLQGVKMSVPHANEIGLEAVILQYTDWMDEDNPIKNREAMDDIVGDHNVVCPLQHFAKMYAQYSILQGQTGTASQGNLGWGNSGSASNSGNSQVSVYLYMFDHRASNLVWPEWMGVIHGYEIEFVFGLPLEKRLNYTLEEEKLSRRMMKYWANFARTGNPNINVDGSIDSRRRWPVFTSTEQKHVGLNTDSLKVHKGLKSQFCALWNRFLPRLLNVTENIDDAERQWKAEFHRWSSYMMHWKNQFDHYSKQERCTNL

[11] = test system: BV-2; assay: Anti-inflammatory activity against LPS-stimulated mouse BV-2 cells assessed as inhibition of LPS-induced IL-6 production incubated for 24 hrs in presence of LPS; assay type: functional, cell-based; conditions: dose 1-9 µM
[12] = test system: PC-12; assay: Neuroprotective activity against Amyloid beta(25 to 35)-induced cell injury in rat PC12 cells assessed as increase in cell viability pretreated for 2 hrs followed by incubation with Abeta(25 to 35) for 24 hrs by CCK-8 assay; assay type: functional, cell-based; conditions: dose 5-20 µM, time 26.0 hrs
[13] = target: T1, Amine oxidase [flavin-containing] A; assay: Inhibition of human recombinant MAO-A expressed in baculovirus-infected BTI cells using kynuramine as substrate at 62.5 uM incubated for 30 mins by fluorescence based analysis; conditions: 0.5 h
[14] = test system: PC-12; assay: Neuroprotective activity against Amyloid beta(25 to 35)-induced cell injury in rat PC12 cells assessed as cell viability at 10 uM pretreated for 2 hrs followed by incubation with Abeta(25 to 35) for 24 hrs by CCK-8 assay (reference value: 41 to 58.6%); assay type: functional; conditions: time 26 hrs, read-out: Activity
[15] = Metal chelating activity assessed as compound-Cu2+ complex formation by measuring small fiber aggregates incubated for 24 hrs by transmission electron microscopy
[16] = test system: PC-12; assay: Neuroprotective activity against Amyloid beta(25 to 35)-induced cell injury in rat PC12 cells assessed as cell viability at 20 uM pretreated for 2 hrs followed by incubation with Abeta(25 to 35) for 24 hrs by CCK-8 assay (reference value: 41 to 58.6%); assay type: functional; conditions: time 26 hrs, read-out: Activity
[17] = Metal chelating activity assessed as compound-Cu2+ complex formation by measuring inhibition of Cu2+-induced amyloid beta (1 to 42) aggregation at 25 uM by thioflavin T-based fluorescence analysis
[18] = test system: PC-12; assay: Neuroprotective activity against Amyloid beta(25 to 35)-induced cell injury in rat PC12 cells assessed as cell viability at 5 uM pretreated for 2 hrs followed by incubation with Abeta(25 to 35) for 24 hrs by CCK-8 assay (reference value: 41 to 58.6%); assay type: functional; conditions: time 26 hrs, read-out: Activity
[19] = Permeability of the compound at 100 ug/ml incubated for 18 hrs by PAMPA assay; assay type: ADME; conditions: dose 100 µg/ml, read-out: permeability
[20] = target: Amyloid-beta precursor protein (Homo sapiens) (UniProt P05067); assay: Inhibition of self-induced Amyloid beta (1 to 42) (unknown origin) aggregation at 25 uM incubated for 24 hrs by thioflavin T-based fluorescence analysis
Chain of Amyloid-beta precursor protein (Homo sapiens) (P05067 whole entry): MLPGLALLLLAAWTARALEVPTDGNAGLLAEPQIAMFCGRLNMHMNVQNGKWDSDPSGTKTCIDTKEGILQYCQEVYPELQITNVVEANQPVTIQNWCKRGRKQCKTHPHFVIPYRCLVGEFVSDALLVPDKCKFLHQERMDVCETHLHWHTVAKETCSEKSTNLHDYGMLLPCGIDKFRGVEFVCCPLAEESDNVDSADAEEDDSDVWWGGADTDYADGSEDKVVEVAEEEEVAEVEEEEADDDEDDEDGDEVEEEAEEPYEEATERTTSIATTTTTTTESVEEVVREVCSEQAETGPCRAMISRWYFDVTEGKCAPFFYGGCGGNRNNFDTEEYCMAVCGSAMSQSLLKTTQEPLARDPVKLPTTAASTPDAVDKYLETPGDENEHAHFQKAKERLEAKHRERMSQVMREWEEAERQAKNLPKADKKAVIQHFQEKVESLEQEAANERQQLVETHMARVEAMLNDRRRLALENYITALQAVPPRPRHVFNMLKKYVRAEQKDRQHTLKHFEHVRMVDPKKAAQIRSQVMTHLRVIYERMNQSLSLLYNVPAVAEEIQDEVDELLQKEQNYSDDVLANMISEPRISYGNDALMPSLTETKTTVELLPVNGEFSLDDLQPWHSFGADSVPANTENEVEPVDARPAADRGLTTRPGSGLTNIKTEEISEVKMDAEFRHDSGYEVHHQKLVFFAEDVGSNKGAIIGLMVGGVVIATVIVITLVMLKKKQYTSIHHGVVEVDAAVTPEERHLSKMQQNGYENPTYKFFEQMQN

[21] = Cytotoxicity against mouse BV-2 cells assessed as cell viability at 30 uM by CCK8 assay; assay type: toxicity, cell-based; conditions: BV-2 cells, read-out: Activity

Structure (SMILES) | Activity [1] | Activity [2] | Ratio IC50 [3] | Activity [4] | Activity [5] | IC50 [7] [µM] | IC50 [9] [µM] | Activity [11] | Activity [12] | inhibition at 62.5 µM [13] [%] | other results
CCN(CC)C(=O)Oc1ccccc1C(=O)/C=C/c1ccc(F)cc1 | Non-Toxic | Dose-Dependent Effect | 24.9 | Non-Toxic | Dose-Dependent Effect | 52.3 | 2.1 | Dose-Dependent Effect | Dose-Dependent Effect | – | IC50 [6]: 18.9 µM; Ratio IC50 [8]: 0.59; IC50 [10]: 11.2 µM
COc1ccccc1/C=C/C(=O)c1ccccc1O | – | – | – | – | – | – | 5.9 | – | – | < 15 | –
O=C(/C=C/c1cc2ccccc2c2ccccc12)c1ccccc1O | – | – | – | – | – | – | 76.8 | – | – | < 15 | –
COc1cc(/C=C/C(=O)CC(=O)/C=C/c2ccc(O)c(OC)c2)ccc1O [CURCUMIN] | – | – | – | Non-Toxic | – | – | – | – | – | – | viability at 10 µM [14]: 76.3%; Activity [15]: Active; viability at 20 µM [16]: 85.5%; inhibition [17]: 53.5%; viability at 5 µM [18]: 62.5%
O=C(/C=C/c1cccc(O)c1)c1ccccc1O | – | – | 29.9 | – | – | 50.9 | 1.7 | – | – | – | –
O=C(/C=C/c1ccc(Br)cc1OC(F)(F)F)c1ccccc1O | – | – | 22.9 | – | – | 59.3 | 2.6 | – | – | – | –
CCn1cc(C(=O)O)c(=O)c2cc(F)c(N3CCNCC3)cc21 [NORFLOXACIN] | – | – | – | – | – | – | – | – | – | – | Papp at 18 h, 100 ug/ml [19]: 0.21 ×10⁻⁶ cm/s
CN(C)C(=O)Oc1ccccc1C(=O)/C=C/c1ccc(F)cc1 | Non-Toxic | Dose-Dependent Effect | 11.7 | Non-Toxic | Dose-Dependent Effect | 31.5 | 2.7 | Dose-Dependent Effect | Dose-Dependent Effect | – | IC50 [6]: 6.3 µM; Ratio IC50 [8]: 1.4; IC50 [10]: 8.7 µM
O=C(/C=C/c1ccc2ccccc2c1Br)c1ccccc1O | – | – | – | – | – | – | 2.8 | – | – | < 15 | –
COc1ccc(/C=C/C(=O)c2ccccc2O)cc1 | Non-Toxic | Dose-Dependent Effect | 40.9 | Non-Toxic | Dose-Dependent Effect | 53.2 | 1.3 | Dose-Dependent Effect | Dose-Dependent Effect | – | inhibition [20]: 61.1%; viability at 30 µM [21]: 78.9%
